Assay results as given in patent US11312705B2, “Heteroaryl[4,3-C]pyrimidine-5-amine derivative, preparation method therefor, and medical uses thereof” (Jiangsu Hengrui Medicine Co., Ltd., priority 2017, dated 2022).

Columns and labels:
[1] = biological target: adenosine A1 receptor (A1R) (Homo sapiens (Human), UniProt P30542); assay: Inhibition of adenosine A1 receptor cAMP signaling pathway (HTRF cAMP, CHO-K1/A1R cells); type: cell-based; conditions: Table 2; for IC50: CHO-K1/A1R cells, forskolin 10 μM, CPA 10 nM, cAMP HTRF; for IC50 ratio (A1R/A2aR): selectivity A1R over A2aR
How it was run: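 CHO-K1/A1R cells (5×10^5 cells/ml) preincubated 30 min at room temperature with compound (100000–0.1 nM final) in HEPES/BSA buffer with rolipram and adenosine deaminase. They were then stimulated 30 min with 10 μM forskolin plus 10 nM CPA, and intracellular cAMP was measured by HTRF.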

[2] = Brain permeability in mice (plasma/brain concentration plus equilibrium dialysis); type: in vivo; conditions: mouse, not told, po; female C57 mice, 20 mg/kg intragastric, 0.5 h after administration; read-out: Blood-brain permeability index (Kp-unbound)
Experimental: The brain permeability of the compounds of the present invention in mice was determined by the following experimental method:
Four female C57 mice were maintained on a 12 hours light/12 hours dark cycle, in a constant temperature of 24±3° C. and a humidity of 50-60%, and had free access to food and water. The compounds were administered intragastrically to the mice after fasting overnight. The administration dosage was 20 mg/kg. The drug administration group was sacrificed after blood collection at 0.5 h after drug administration (collected blood volume: 0.5 ml). The blood sample was stored in heparinized tubes, and centrifuged for 10 minutes at 3500 rpm to separate the plasma, which was marked as plasma 1 and stored at −80° C. […]
The equilibrium dialysis tube of RED Device Inserts was inserted into a 96-well plate. […] The chromatographic peak area ratios of the total drug (plasma chamber) and the free drug (buffer chamber) to the internal standard were determined directly by the LC/MS/MS method established above respectively, and the free percent (fuplasma%) was calculated. […]
5.1 The drug concentrations in plasma 1 and brain tissue 1 of mice 0.5 h after drug administration were determined by the established LC/MS/MS method respectively, which were the total concentration (Ctotal, p and Ctotal, b); […]

Chain of adenosine A1 receptor (A1R) (P30542 whole entry): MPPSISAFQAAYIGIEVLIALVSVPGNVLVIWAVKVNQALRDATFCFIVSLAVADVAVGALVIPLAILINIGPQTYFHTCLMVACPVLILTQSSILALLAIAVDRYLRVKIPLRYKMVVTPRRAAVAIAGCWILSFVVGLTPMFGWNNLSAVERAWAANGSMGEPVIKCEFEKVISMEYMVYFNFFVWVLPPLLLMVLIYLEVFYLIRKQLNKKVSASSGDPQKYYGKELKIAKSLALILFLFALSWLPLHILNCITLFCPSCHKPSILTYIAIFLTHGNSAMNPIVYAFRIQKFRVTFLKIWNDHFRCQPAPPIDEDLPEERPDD

| IC50 [1] [nM] | IC50 ratio (A1R/A2aR) [1] | Kp at 0.5 h [2] | Structure (SMILES) |
| --- | --- | --- | --- |
| 409 | 103 | 0.01 | Cc1cc(-c2c(-c3ccc(F)cc3F)nc(N)n3cnnc23)cc(C(F)(F)F)n1 [Example 18, 7-(2,4-Difluorophenyl)-8-(2-methyl-6-(trifluoromethyl)pyridin-4-yl)-[1,2,4]triazolo[4,3-c]pyrimidin-5-amine] |
| 519 | 223 | 0.015 | Cc1cc(-c2c(-c3ccc(F)cc3F)nc(N)n3cnnc23)cc(C(F)F)n1 [Example 20, 8-(2-(Difluoromethyl)-6-methylpyridin-4-yl)-7-(2,4-difluorophenyl)-[1,2,4]triazolo[4,3-c]pyrimidin-5-amine] |
